Like-named read-outs stand apart in the source and are kept apart here.
Experiments:
ecNadD = ecNadD (Escherichia coli (strain K12), UniProt P0A752); test: biochemical; type: biochemical; settings: for IC50: IC50 ecNadD; for inhibition at 100 µM: read-out: INHIBITION (%) E. coli
baNadD = baNadD (Bacillus anthracis, UniProt C3L5T6); test: biochemical; type: biochemical; settings: for inhibition at 50 µM: read-out: INHIBITION (%) B. anthracis
Sequence of baNadD (C3L5T6 whole entry, looked up): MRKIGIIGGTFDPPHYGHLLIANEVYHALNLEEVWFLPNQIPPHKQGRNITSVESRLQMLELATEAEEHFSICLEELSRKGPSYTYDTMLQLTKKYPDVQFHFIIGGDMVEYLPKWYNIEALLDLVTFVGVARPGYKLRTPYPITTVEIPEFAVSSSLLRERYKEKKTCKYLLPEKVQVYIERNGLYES

| SMILES | inhibition at 100 µM (ecNadD) | inhibition at 50 µM (baNadD) | other results |
| --- | --- | --- | --- |
| O=C(CCC(=O)Nc1cccc(Br)c1)N/N=C/c1c2ccccc2cc2ccccc12 [01_01] | 90% | 81% | IC50 (ecNadD): 6 µM; IC50 (baNadD; read-out: IC50 baNadD): 4 µM |
| O=C(CCC(=O)Nc1ccccc1Br)N/N=C/c1c2ccccc2cc2ccccc12 [01_04] | 79% | 100% | IC50 (ecNadD): 15 µM; IC50 (baNadD; read-out: IC50 baNadD): 25 µM |
| CC(/C=N/NC(=O)CCC(=O)Nc1ccc(Br)cc1)c1ccc2ccccc2c1 (centres unmarked) [01_05] | 78% | 76% | IC50 (ecNadD): 88 µM |
| O=C(CCC(=O)Nc1ccc(I)cc1)N/N=C/c1cccc(Br)c1 [01_06] | 78% | 54% |  |
| Cc1ccc(NC(=O)CCC(=O)N/N=C/c2cccc(Br)c2)cc1 [01_08] | 75% | 74% |  |
| O=C(CCC(=O)Nc1ccc(Br)cc1)N/N=C/c1ccc(Br)cc1 [01_09] | 74% | 68% |  |
| O=C(CCC(=O)Nc1cccc(Br)c1)N/N=C/c1cccc(Br)c1 [01_10] | 72% | 53% |  |
| COc1ccc(/C(C)=N/NC(=O)CNc2cc(Br)c(C)c(Br)c2)c(OC)c1 [01_11] | 70% | 86% | IC50 (baNadD; read-out: IC50 baNadD): 30 µM |
| O=C(CCC(=O)Nc1ccc(Br)cc1)N/N=C/C=C/c1ccccc1 [01_12] | 68% | 75% | IC50 (baNadD; IC50 baNadD): 48 µM |
| O=C(CCC(=O)Nc1ccc(Br)cc1)N/N=C/c1cccc(Br)c1 [01_13] | 67% | 29% | IC50 (baNadD; read-out: IC50 baNadD): 170 µM |
| Cc1ccc(/C=N/NC(=O)CCC(=O)Nc2ccc(C)cc2)cc1 [01_14] | 60% | 70% |  |
| O=C(CCC(=O)Nc1ccc(Br)cc1)N/N=C/c1ccc(F)cc1 [01_15] | 47% | 22% | IC50 (baNadD; read-out: IC50 baNadD): 122 µM |
| O=C(CCC(=O)Nc1ccc(F)cc1)N/N=C/c1ccc(O)cc1 [01_16] | 42% | 29% |  |
| O=C(CCC(=O)Nc1cccc(Br)c1)N/N=C/c1ccc(I)cc1 [01_17] | 41% | 35% |  |
| C/C(=N/NC(=O)CCC(=O)Nc1ccc(Br)cc1)c1ccc(Br)cc1 [01_18] | 38% | 49% |  |
| O=C(CCC(=O)Nc1ccccc1Cl)NN=Cc1ccc(C=NNC(=O)CCC(=O)Nc2ccccc2Cl)cc1 [1—02—1, N-(2-Chloro-phenyl)-3-(4-{[3-(2-chloro-phenylcarbamoyl)-propionyl]-hydrazonomethyl}-benzylidene-hydrazinocarbonyl)-propionamide] |  |  | ecNadD inhibition (qualitative) (ecNadD): effective; IC50 (ecNadD): 13 ± 2 µM; baNadD inhibition (qualitative) (baNadD): effective; improvement in activity compared to precursors 1_13 and 1_15 (baNadD): more than 10 fold |
| O=C(O)CNN=C(C(=O)CCC(=O)Nc1ccccc1Cl)c1ccc(C=NN(CC(=O)O)C(=O)CCC(=O)Nc2ccccc2Cl)cc1 [1—02—2, {N′-(4-{Carboxymethyl-[3-(2-chloro-phenylcarbamoyl)-propionyl]-hydrazonomethyl}-benzylidene)-N-[3-(2-chloro-phenylcarbamoyl)-propionyl]-hydrazino}-acetic acid] |  |  | inhibitory activity against baNadD (baNadD): did not inhibit |
| O=C(O)CN(N=Cc1cccc2ccccc12)C(=O)CCC(=O)Nc1ccccc1Cl [1—02—3, {N-[3-(2-Chloro-phenylcarbamoyl)-propionyl]-N′-naphthalen-1-ylmethylene-hydrazino}-acetic acid] |  |  | IC50 (baNadD; IC50 baNadD): > 200 µM |
| Nc1c(C(=O)Nc2cc(F)ccc2F)sc2nc(-c3cccs3)ccc12 [03_01] |  |  | INHIBITION (%) E. coli (ecNadD): 100% 25; IC50 (ecNadD): 25 µM; INHIBITION (%) B. anthracis (baNadD): 100% 25; IC50 (baNadD; IC50 baNadD): 25 µM |
| Sc1nnc(-c2ccncc2)n1-c1ccccc1Cl [compound 042] |  |  | […]. coli (ecNadD): 19% |
| Nc1n[nH]c(N)c1/N=N/c1ccccc1 [compound 271] |  |  | […]. coli (ecNadD): 0% |
| Nc1n[nH]c(N)c1/N=N/c1ccccc1 [compound 272] |  |  | […]. anthracis (baNadD): 23% |
| O=C(CCS(=O)(=O)c1ccc(Br)s1)NCc1cccs1 [compound 285] |  |  | […]. coli (ecNadD): 0% |

— patent US8785499B2 (priority 2009, dated 2014)
